target: recombinant DYRK1A kinase (Homo sapiens, UniProt Q13627); experiment: DYRK1A kinase assay (Ser/Thr 18 peptide Z-lyte FRET); format: biochemical; settings: DYRK1A kinase activity; 15 μM ATP, 4 μM Ser/Thr peptide 18, one hour at room temperature
In short: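 Recombinant DYRK1A at 0.25 μg/mL was incubated 1 h at room temperature with 15 μM ATP, 4 μM Ser/Thr 18 peptide and compound, in duplicate, 11-point series from 10 μM. Phosphorylation was read by Z-lyte FRET after 1 h protease development, as the coumarin/fluorescein emission ratio converted to % phosphorylation. IC50 by non-linear regression.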

| Compound | EC50 [nM] |
| --- | --- |
| O=C(Nc1cncc(F)c1)c1cnc2[nH]cc(-c3ccc4c(c3)C3(CCNCC3)CC4=O)c2c1 [Compound 764, N-(5-fluoropyridin-3-yl)-3-(3-oxo-2,3-dihydrospiro[indene-1,4′-piperidin]-6-yl)-1H-pyrrolo[2,3-b]pyridine-5-carboxamide] | 22 |
| Cc1nc2c(F)cc(-c3c[nH]c4ncc(C(=O)Nc5ccc(N6CCN(C)CC6)nc5)cc34)cc2n1C(C)C [Compound 787, 3-(4-Fluoro-1-isopropyl-2-methyl-1H-benzo[d]imidazol-6-yl)-N-(6-(4-methylpiperazin-1-yl)pyridin-3-yl)-1H-pyrrolo[2,3-b]pyridine-5-carboxamide] | 3 |
| CN1CCN(c2ccc(NC(=O)c3cnc4[nH]cc(-c5ccn6ncc(C(=O)N7CCCCC7)c6c5)c4c3)cn2)CC1 [Compound 802, N-(6-(4-Methylpiperazin-1-yl)pyridin-3-yl)-3-(3-(piperidine-1-carbonyl)pyrazolo[1,5-a]pyridin-5-yl)-1H-pyrrolo[2,3-b]pyridine-5-carboxamide] | 7 |
| CN1CCN(c2ccc(NC(=O)c3cnc4[nH]cc(-c5ccc6c(c5)C(C)(C)CNC6=O)c4c3)cn2)CC1 [Compound 813, 3-(4,4-Dimethyl-1-oxo-1,2,3,4-tetrahydroisoquinolin-6-yl)-N-(6-(4-methylpiperazin-1-yl)pyridin-3-yl)-1H-pyrrolo[2,3-b]pyridine-5-carboxamide] | 3 |
| Cc1nc2c(F)cc(-c3c[nH]c4ncc(NC(=O)c5ccnc(N6CCNCC6)c5)cc34)cc2n1C(C)C [Compound 829, N-(3-(4-Fluoro-1-isopropyl-2-methyl-1H-benzo[d]imidazol-6-yl)-1H-pyrrolo[2,3-b]pyridin-5-yl)-2-(piperazin-1-yl)isonicotinamide] | 2 |
| Cc1nc2c(F)cc(-c3c[nH]c4ncc(Nc5ccnc(N6CCN(C)CC6)c5)cc34)cc2n1C(C)C [Compound 871, 3-(4-Fluoro-1-isopropyl-2-methyl-1H-benzo[d]imidazol-6-yl)-N-(2-(4-methylpiperazin-1-yl)pyridin-4-yl)-1H-pyrrolo[2,3-b]pyridin-5-amine] | 2 |
| Cc1nc2c(F)cc(-c3c[nH]c4ncc(-c5ccccc5)cc34)cc2n1C(C)C [Compound 913, 4-Fluoro-1-isopropyl-2-methyl-6-(5-phenyl-1H-pyrrolo[2,3-b]pyridin-3-yl)-1H-benzo[d]imidazole] | 4 |
| Cc1ccccc1-c1cnc2[nH]cc(-c3cc(F)c4nc(C)n(C(C)C)c4c3)c2c1 [Compound 955, 4-Fluoro-1-isopropyl-2-methyl-6-(5-(o-tolyl)-1H-pyrrolo[2,3-b]pyridin-3-yl)-1H-benzo[d]imidazole] | 20 |
| Cc1nc2c(F)cc(-c3c[nH]c4ncc(-c5cc(F)c(F)c(N6CCNCC6)c5)cc34)cc2n1C(C)C [Compound 997, 6-(5-(3,4-Difluoro-5-(piperazin-1-yl)phenyl)-1H-pyrrolo[2,3-b]pyridin-3-yl)-4-fluoro-1-isopropyl-2-methyl-1H-benzo[d]imidazole] | 6 |
| CN1CCC(Nc2ncnc3ccc(-c4c[nH]c5ncc(-c6cnn(C)c6)cc45)cc23)CC1 [Compound 1074, 6-(5-(1-Methyl-1H-pyrazol-4-yl)-1H-pyrrolo[2,3-b]pyridin-3-yl)-N-(1-methylpiperidin-4-yl)quinazolin-4-amine] | 19 |
| Cc1nn(C)c(C)c1-c1cnc2[nH]cc(-c3cc(F)c4nc(C)n(C(C)C)c4c3)c2c1 [Compound 1081, 4-Fluoro-1-isopropyl-2-methyl-6-(5-(1,3,5-trimethyl-1H-pyrazol-4-yl)-1H-pyrrolo[2,3-b]pyridin-3-yl)-1H-benzo[d]imidazole] | 2 |
| Cc1nc2c(F)cc(-c3c[nH]c4ncc(-c5cnn6c5CN(C)CC6)cc34)cc2n1C(C)C [Compound 1123, 3-(3-(4-Fluoro-1-isopropyl-2-methyl-1H-benzo[d]imidazol-6-yl)-1H-pyrrolo[2,3-b]pyridin-5-yl)-5-methyl-4,5,6,7-tetrahydropyrazolo[1,5-a]pyrazine] | 4 |
| CN1CCn2ncc(-c3cnc4[nH]cc(-c5ccn6ncc(C(=O)Nc7cccnc7)c6c5)c4c3)c2C1 [Compound 1137, 5-(5-(5-Methyl-4,5,6,7-tetrahydropyrazolo[1,5-a]pyrazin-3-yl)-1H-pyrrolo[2,3-b]pyridin-3-yl)-N-(pyridin-3-yl)pyrazolo[1,5-a]pyridine-3-carboxamide] | 4 |
| CN1CCn2ncc(-c3cnc4[nH]cc(-c5ccc6ncncc6c5)c4c3)c2C1 [Compound 1154, 6-(5-(5-Methyl-4,5,6,7-tetrahydropyrazolo[1,5-a]pyrazin-3-yl)-1H-pyrrolo[2,3-b]pyridin-3-yl)quinazoline] | 10 |
| Cc1nc2c(F)cc(-c3c[nH]c4ncc(-c5cccnc5)cc34)cc2n1C1CCN(C)CC1 [Compound 1166, 4-Fluoro-2-methyl-1-(1-methylpiperidin-4-yl)-6-(5-(pyridin-3-yl)-1H-pyrrolo[2,3-b]pyridin-3-yl)-1H-benzo[d]imidazole] | 3 |
| CN1CCC(NC(=O)c2cnn3ccc(-c4c[nH]c5ncc(-c6cccnc6)cc45)cc23)CC1 [Compound 1178, N-(1-Methylpiperidin-4-yl)-5-(5-(pyridin-3-yl)-1H-pyrrolo[2,3-b]pyridin-3-yl)pyrazolo[1,5-a]pyridine-3-carboxamide] | 6 |
| O=C1CC2(CCNCC2)Oc2cc(-c3c[nH]c4ncc(-c5cccnc5)cc34)ccc21 [Compound 1192, 7-(5-(Pyridin-3-yl)-1H-pyrrolo[2,3-b]pyridin-3-yl)spiro[chromane-2,4′-piperidin]-4-one] | 10 |
| COc1ncnc2ccc(-c3c[nH]c4ncc(-c5cccnc5)cc34)cc12 [Compound 1197, 4-Methoxy-6-(5-(pyridin-3-yl)-1H-pyrrolo[2,3-b]pyridin-3-yl) quinazoline] | 3 |
| Cc1ncccc1-c1cnc2[nH]cc(-c3cc(F)c4nc(C)n(C(C)C)c4c3)c2c1 [Compound 1207, 4-Fluoro-1-isopropyl-2-methyl-6-(5-(2-methylpyridin-3-yl)-1H-pyrrolo[2,3-b]pyridin-3-yl)-1H-benzo[d]imidazole] | 2 |
| Cc1ccncc1-c1cnc2[nH]cc(-c3cc(F)c4nc(C)n(C(C)C)c4c3)c2c1 [Compound 1249, 4-Fluoro-1-isopropyl-2-methyl-6-(5-(4-methylpyridin-3-yl)-1H-pyrrolo[2,3-b]pyridin-3-yl)-1H-benzo[d]imidazole] | 2 |
| Cc1ccnc(C)c1-c1cnc2[nH]cc(-c3cc(F)c4nc(C)n(C(C)C)c4c3)c2c1 [Compound 1291, 6-(5-(2,4-Dimethylpyridin-3-yl)-1H-pyrrolo[2,3-b]pyridin-3-yl)-4-fluoro-1-isopropyl-2-methyl-1H-benzo[d]imidazole] | 7 |

The next lines start with the values.

| EC50 [nM] | Compound |
| --- | --- |
| 10 | CN1CCN(c2ccc(NC(=O)c3cnc4[nH]cc(-c5ccn6ncnc6c5)c4c3)cn2)CC1 [Compound 792, 3-([1,2,4]Triazolo[1,5-a]pyridin-7-yl)-N-(6-(4-methylpiperazin-1-yl)pyridin-3-yl)-1H-pyrrolo[2,3-b]pyridine-5-carboxamide] |
| 2 | Cn1cc(-c2cnc3[nH]cc(-c4ccc5nccn5c4)c3c2)cn1 [Compound 1036, 6-(5-(1-Methyl-1H-pyrazol-4-yl)-1H-pyrrolo[2,3-b]pyridin-3-yl) imidazo[1,2-a]pyridine] |
| 9 | CN1CCN(C(=O)c2cnn3ccc(-c4c[nH]c5ncc(-c6cnn(C)c6)cc45)cc23)CC1 [Compound 1055, (5-(5-(1-Methyl-1H-pyrazol-4-yl)-1H-pyrrolo[2,3-b]pyridin-3-yl)pyrazolo[1,5-a]pyridin-3-yl)(4-methylpiperazin-1-yl)methanone] |
| 3 | CN1CCN(c2ncnc3ccc(-c4c[nH]c5ncc(-c6cccnc6)cc45)cc23)CC1 [Compound 1198, 4-(4-Methylpiperazin-1-yl)-6-(5-(pyridin-3-yl)-1H-pyrrolo[2,3-b]pyridin-3-yl)quinazoline] |
| 1 | Cc1nc2c(F)cc(-c3c[nH]c4ncc(-c5ccc(N6CCN(C)CC6)nc5)cc34)cc2n1C(C)C [Compound 1333, 4-Fluoro-1-isopropyl-2-methyl-6-(5-(6-(4-methylpiperazin-1-yl)pyridin-3-yl)-1H-pyrrolo[2,3-b]pyridin-3-yl)-1H-benzo[d]imidazole] |
| 1 | CN1CCN(c2ccc(-c3cnc4[nH]cc(-c5ccc6ncccc6c5)c4c3)cn2)CC1 [Compound 1362, 6-(5-(6-(4-Methylpiperazin-1-yl)pyridin-3-yl)-1H-pyrrolo[2,3-b]pyridin-3-yl)quinoline] |
| 6 | CN1CCN(c2cc(-c3cnc4[nH]cc(-c5cc6ccncc6s5)c4c3)ccn2)CC1 [Compound 1370, 2-(5-(2-(4-Methylpiperazin-1-yl)pyridin-4-yl)-1H-pyrrolo[2,3-b]pyridin-3-yl)thieno[2,3-c]pyridine] |
| 1 | CN1CCN(c2cc(-c3cnc4[nH]cc(-c5ccc6nccn6c5)c4c3)ccn2)CC1 [Compound 1372, 6-(5-(2-(4-Methylpiperazin-1-yl)pyridin-4-yl)-1H-pyrrolo[2,3-b]pyridin-3-yl)imidazo[1,2-a]pyridine] |
| 2 | Cc1nc2c(F)cc(-c3c[nH]c4ncc(-c5ccnc(N6CCN(C)CC6)c5)cc34)cc2n1C(C)C [Compound 1375, 4-Fluoro-1-isopropyl-2-methyl-6-(5-(2-(4-methylpiperazin-1-yl)pyridin-4-yl)-1H-pyrrolo[2,3-b]pyridin-3-yl)-1H-benzo[d]imidazole] |
| 1 | CN1CCN(c2cc(-c3cnc4[nH]cc(-c5ccn6ncc(-c7cnn(C)c7)c6c5)c4c3)ccn2)CC1 [Compound 1384, 3-(3-(1-methyl-1H-pyrazol-4-yl)pyrazolo[1,5-a]pyridin-5-yl)-5-(2-(4-methylpiperazin-1-yl)pyridin-4-yl)-1H-pyrrolo[2,3-b]pyridine] |

From patent US20230192686A1, “1H-PYRROLO[2,3-B]PYRIDINES AND PREPARATION AND USES THEREOF” (BioSplice Therapeutics, Inc., priority 2021, published 2023)
